According to patent US20210127673A1, “HERBICIDES” (SYNGENTA PARTICIPATIONS AG, priority 2016, published 2021):

Assays:
Assay type in all cases: in vivo
Settings in all cases: evaluated after 13 days
[1] = test system: Echinochloa crus-galli (ECHCG); assay: Pre-emergence herbicidal activity, Echinochloa crus-galli; design: key: 5=total damage to plant; 0=no damage to plant
How it was run: (§1)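 Compound is applied as an aqueous spray (acetone/water 50:50, 0.5% Tween 20) to pots one day after sowing, before emergence. Growth continues in a glasshouse at 24/16 °C, 14 h photoperiod, 65% humidity, with twice-daily watering, and injury is graded after 13 days from 0 (no damage) to 5 (total damage).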

Setaria faberi (SETFA) [2] = assay: Post-emergence herbicidal activity, Setaria faberi; design: key: 5=total damage to plant; 0=no damage to plant
How it was run: (§2)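 Post-em, 8 d plants, pots; acetone:water 1:1 + 0.5% Tween 20 spray; 24/16 °C, 14 h photoperiod, 65% RH; 13 d readout, 0–5 phytotoxicity scale.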

Avena fatua (AVEFA) [3] = assay: Post-emergence herbicidal activity, Avena fatua
How it was run: as §2

[4] = test system: Triticum aestivium (TRZAW); assay: Pre-emergence herbicidal activity, Triticum aestivium; design: key: 5=total damage to plant; 0=no damage to plant
How it was run: as §1

Avena fatua (AVEFA) [5] = assay: Pre-emergence herbicidal activity, Avena fatua; design: key: 5=total damage to plant; 0=no damage to plant
How it was run: as §1

[6] = test system: Alopecurus myosuroides (ALOMY); assay: Pre-emergence herbicidal activity, Alopecurus myosuroides; design: key: 5=total damage to plant; 0=no damage to plant
How it was run: as §1

Setaria faberi (SETFA) [7] = assay: Pre-emergence herbicidal activity, Setaria faberi; design: key: 5=total damage to plant; 0=no damage to plant
How it was run: as §1

[8] = test system: Echinochloa crus-galli (ECHCG); assay: Post-emergence herbicidal activity, Echinochloa crus-galli; design: key: 5=total damage to plant; 0=no damage to plant
How it was run: as §2

Lolium perenne (LOLPE) [9] = assay: Pre-emergence herbicidal activity, Lolium perenne; design: key: 5=total damage to plant; 0=no damage to plant
How it was run: as §1

[10] = test system: Alopecurus myosuroides (ALOMY); assay: Post-emergence herbicidal activity, Alopecurus myosuroides; design: key: 5=total damage to plant; 0=no damage to plant
How it was run: as §2

Lolium perenne (LOLPE) [11] = assay: Post-emergence herbicidal activity, Lolium perenne; design: key: 5=total damage to plant; 0=no damage to plant
How it was run: as §2

[12] = test system: Triticum aestivium (TRZAW); assay: Post-emergence herbicidal activity, Triticum aestivium; design: key: 5=total damage to plant; 0=no damage to plant
How it was run: as §2

| SMILES | Control of ECHCG after pre-emergence application (score 0-5) ([1]; 1000 g/ha) | Control of SETFA after post-emergence application (score 0-5) (Setaria faberi (SETFA) [2]; 1000 g/ha) | Control of AVEFA after post-emergence application (score 0-5) (Avena fatua (AVEFA) [3]; 1000 g/ha) | Control of TRAZW after pre-emergence application (score 0-5) ([4]; 1000 g/ha) | Control of AVEFA after pre-emergence application (score 0-5) (Avena fatua (AVEFA) [5]; 1000 g/ha) | Control of ALOMY after pre-emergence application (score 0-5) ([6]; 1000 g/ha) | Control of SETFA after pre-emergence application (score 0-5) (Setaria faberi (SETFA) [7]; 1000 g/ha) | Control of ECHCG after post-emergence application (score 0-5) ([8]; 1000 g/ha) | Control of LOLPE after pre-emergence application (score 0-5) (Lolium perenne (LOLPE) [9]; 1000 g/ha) | Control of ALOMY after post-emergence application (score 0-5) ([10]; 1000 g/ha) | Control of LOLPE after post-emergence application (score 0-5) (Lolium perenne (LOLPE) [11]; 1000 g/ha) | Control of TRAZW after post-emergence application (score 0-5) ([12]; 1000 g/ha) | other results |
| --- | --- | --- | --- | --- | --- | --- | --- | --- | --- | --- | --- | --- | --- |
| O=C(Nc1ccc(-c2cncc(F)c2)nc1C(F)(F)F)NC1CCCC1 [Compound B50] | 2 | 5 | 3 | 0 | 1 | 0 | 4 | 4 | 1 | 0 | 1 | 0 | – |
| CN1COCN(c2ccc(-c3cncc(F)c3)nc2C(F)(F)F)C1=O [Compound B121, 3-[6-(5-fluoro-3-pyridyl)-2-(trifluoromethyl)-3-pyridyl]-5-methyl-1,3,5-oxadiazinan-4-one] | 2 | 5 | 3 | 0 | 0 | 0 | 4 | 3 | 0 | 0 | 2 | 0 | – |
| CON(C)C(=O)Nc1ccc(-c2cncc(F)c2)nc1C(F)(F)F [Compound B111] | 3 | 4 | 2 | 0 | 2 | 0 | 3 | 3 | 0 | 0 | 1 | 0 | – |
| C#CC(C)(C)NC(=O)Nc1ccc(-c2cncc(F)c2)nc1C(F)(F)F [Compound B102] | 4 | 5 | 4 | 0 | 3 | 0 | 5 | 5 | 2 | 1 | 3 | 1 | – |
| CC(C)(C)OC(=O)N(Cc1ccc(F)cc1F)c1ccc(-c2cncc(F)c2)nc1C(F)(F)F [Compound B3] | 0 | 3 | 2 | 0 | 0 | 0 | 0 | 2 | 0 | 0 | 0 | 0 | – |
| CCCCN(C)C(=O)Nc1ccc(-c2cncc(F)c2)nc1C(F)(F)F [Compound B95] | – | – | – | – | – | – | – | – | – | – | – | – | Control of ECHCG after pre-emergence application (score 0-5) ([1]; 250 g/ha): 1; Control of SETFA after post-emergence application (score 0-5) (Setaria faberi (SETFA) [2]; 250 g/ha): 5; Control of AVEFA after post-emergence application (score 0-5) (Avena fatua (AVEFA) [3]; 250 g/ha): 3; Control of TRAZW after pre-emergence application (score 0-5) ([4]; 250 g/ha): 0; Control of AVEFA after pre-emergence application (score 0-5) (Avena fatua (AVEFA) [5]; 250 g/ha): 0; Control of ALOMY after pre-emergence application (score 0-5) ([6]; 250 g/ha): 0; Control of SETFA after pre-emergence application (score 0-5) (Setaria faberi (SETFA) [7]; 250 g/ha): 4; Control of ECHCG after post-emergence application (score 0-5) ([8]; 250 g/ha): 2; Control of LOLPE after pre-emergence application (score 0-5) (Lolium perenne (LOLPE) [9]; 250 g/ha): 1; Control of ALOMY after post-emergence application (score 0-5) ([10]; 250 g/ha): 0; Control of LOLPE after post-emergence application (score 0-5) (Lolium perenne (LOLPE) [11]; 250 g/ha): 1; Control of TRAZW after post-emergence application (score 0-5) ([12]; 250 g/ha): 0 |
| Cc1cnc(CNC(=O)Nc2ccc(-c3cncc(F)c3)nc2C(F)(F)F)cn1 [Compound B92] | – | – | – | – | – | – | – | – | – | – | – | – | Control of ECHCG after pre-emergence application (score 0-5) ([1]; 250 g/ha): 1; Control of SETFA after post-emergence application (score 0-5) (Setaria faberi (SETFA) [2]; 250 g/ha): 4; Control of AVEFA after post-emergence application (score 0-5) (Avena fatua (AVEFA) [3]; 250 g/ha): 3; Control of TRAZW after pre-emergence application (score 0-5) ([4]; 250 g/ha): 0; Control of AVEFA after pre-emergence application (score 0-5) (Avena fatua (AVEFA) [5]; 250 g/ha): 1; Control of ALOMY after pre-emergence application (score 0-5) ([6]; 250 g/ha): 0; Control of SETFA after pre-emergence application (score 0-5) (Setaria faberi (SETFA) [7]; 250 g/ha): 5; Control of ECHCG after post-emergence application (score 0-5) ([8]; 250 g/ha): 3; Control of LOLPE after pre-emergence application (score 0-5) (Lolium perenne (LOLPE) [9]; 250 g/ha): 0; Control of ALOMY after post-emergence application (score 0-5) ([10]; 250 g/ha): 0; Control of LOLPE after post-emergence application (score 0-5) (Lolium perenne (LOLPE) [11]; 250 g/ha): 1; Control of TRAZW after post-emergence application (score 0-5) ([12]; 250 g/ha): 0 |
| COc1nc(-c2cncc(F)c2)ccc1NC(=O)OC(C)(C)C [Compound B78] | 2 | 5 | 2 | 0 | 0 | 0 | 4 | 2 | 1 | 0 | 1 | 0 | – |
